For one assay, the target named is MAPK14 (UniProt Q16539). The assay is described as follows: Enzyme Assay.
Another assay addresses MAPK14 (human) (UniProt Q16539). The assay is described as follows: Inhibition of LPS-Induced TNF-alpha Production in THP-1 Cells. As to conditions: thp1.

The structures appear in SMILES notation. Bounds are passed on as bounds.

MAPK14, sequence (Q16539 whole entry, looked up): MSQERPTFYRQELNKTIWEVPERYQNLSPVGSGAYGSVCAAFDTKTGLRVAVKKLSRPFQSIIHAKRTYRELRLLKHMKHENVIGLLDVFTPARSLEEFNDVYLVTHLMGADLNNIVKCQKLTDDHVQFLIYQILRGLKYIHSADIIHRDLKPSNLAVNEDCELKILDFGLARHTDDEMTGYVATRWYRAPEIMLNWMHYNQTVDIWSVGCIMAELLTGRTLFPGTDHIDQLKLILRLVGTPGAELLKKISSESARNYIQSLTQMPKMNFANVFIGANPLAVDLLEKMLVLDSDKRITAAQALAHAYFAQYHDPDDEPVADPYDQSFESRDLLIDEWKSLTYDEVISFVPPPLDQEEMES
MAPK14 (human), sequence (Q16539 whole entry, looked up): as above

Broadly, the IC50 is the midpoint of a concentration-inhibition curve. Read a low IC50 as greater potency in that assay. With `O=C(Nc1ccc(Cl)c(COc2ccc(NCCO)nc2)c1)c1cc(F)cc(N2CCOCC2)c1`, the IC50 against MAPK14 is less than 2 µM; on MAPK14 (human), 0.97 µM. `O=C(Nc1ccc(Cl)c(COc2cnccn2)c1)c1cc(F)cc(N2CCOCC2)c1`: the IC50 against MAPK14 was less than 2 µM; against MAPK14 (human), 0.21 µM. On MAPK14, `Cc1ccc(-n2nc(C(C)(C)C)cc2NC(=O)Nc2ccc(F)c(COc3cnccn3)c2)cc1` returned an IC50 of less than 2 µM.

Take `O=C(Nc1ccc(Cl)c(COc2cccnc2)c1)c1cccc(C(F)(F)F)c1`: the IC50 on MAPK14 was less than 20 µM.

At MAPK14, `O=C1c2ccccc2C(O)N1c1ccc(Cl)c(COc2cccnc2)c1` (stereo not given) gave an IC50 of less than 200 µM. Consider `CC(C)c1nnc(NC(=O)Nc2ccc(F)c(COc3cccnc3)c2)s1`, for which the IC50 on MAPK14 was less than 20 µM. In the case of `O=C(Nc1ccccc1)Nc1ccc(Cl)c(COc2cccnc2)c1`, the IC50 on MAPK14 is less than 20 µM. In turn, `O=C(Nc1ccc(Cl)c(COc2cccnc2)c1)c1ccccc1` gave an IC50 at MAPK14 of less than 20 µM.

Source of the values: the Kinase Knowledgebase extract (Sharma et al. 2016).
